As a reminder, the EC50 is the concentration needed to bring the measured effect to its halfway point.

Among the data in ChEMBL document CHEMBL3632608, “Effects of alkyl side chains and terminal hydrophilicity on vitamin D receptor (VDR) agonistic activity based on the diphenylpentane skeleton” (Bioorg Med Chem Lett, 2015) are EC50, inhibition and Activity values, retold here.

Active and inactive are the calls of the source. No cut-off for these calls is given here. Some results are limits rather than exact numbers.

What all share (format): cell-based
For assay [1], the target named is T1, Vitamin D3 receptor (Homo sapiens, UniProt P11473).
T1 sequence (P11473 whole entry): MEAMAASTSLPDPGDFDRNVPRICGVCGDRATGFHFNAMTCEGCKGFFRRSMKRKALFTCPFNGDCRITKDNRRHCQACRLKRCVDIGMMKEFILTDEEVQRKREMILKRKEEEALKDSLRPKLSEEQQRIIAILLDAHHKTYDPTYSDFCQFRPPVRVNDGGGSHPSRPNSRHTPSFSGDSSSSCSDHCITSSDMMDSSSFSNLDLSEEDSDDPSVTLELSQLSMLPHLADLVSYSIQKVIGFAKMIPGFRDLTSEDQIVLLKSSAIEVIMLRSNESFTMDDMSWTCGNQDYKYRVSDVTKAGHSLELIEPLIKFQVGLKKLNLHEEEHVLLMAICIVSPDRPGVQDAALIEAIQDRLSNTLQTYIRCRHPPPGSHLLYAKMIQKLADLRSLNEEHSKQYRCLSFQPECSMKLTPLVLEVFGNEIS
Put plainly: Agonist activity at human VDR expressed in HEK293 cells co-expressing CMX-GAL4N and TK-MH100x4-LUC assessed as induction of transcriptional activity by beta-galactosidase reporter gene assay. For orientation: Reporter assays use an easily measured gene product as a stand-in for the process of interest.

Assay [2] deals with T2, Vitamin D3 receptor (Homo sapiens) (UniProt P11473).
T2 sequence (whole entry): T1 sequence (P11473 whole entry)
The assay is described as follows: Antagonist activity at human VDR expressed in HEK293 cells co-expressing CMX-GAL4N and TK-MH100x4-LUC assessed as inhibition of 1alpha,25(OH)2VD3-induced transcriptional activity up to 10 uM by beta-galactosidase reporter gene assay.

The target in assay [3] is T2, Vitamin D3 receptor (Homo sapiens). Put plainly: Agonist activity at VDR in human HL60 cells assessed as induction of cell differentiation at 10 uM by NBT reduction assay. The following applies: HL-60.
Assay [4] has the same target. The assay is described as follows: Agonist activity at human VDR expressed in HEK293 cells co-expressing CMX-GAL4N and TK-MH100x4-LUC assessed as induction of transcriptional activity at 3 uM by beta-galactosidase reporter gene assay relative to 1alpha,25(OH)2VD3.
The target is the same in assay [5]. The assay is described as follows: Agonist activity at human VDR expressed in HEK293 cells co-expressing CMX-GAL4N and TK-MH100x4-LUC assessed as induction of transcriptional activity at 10 uM by beta-galactosidase reporter gene assay relative to 1alpha,25(OH)2VD3.

In the case of `CCCCCCCCOC(C)(C)[C@H](O)COc1ccc(C(CC)(CC)c2ccc(OC[C@@H](O)CO)c(C)c2)cc1C`, the EC50 entry in assay [1] (hek293) was “Not Active”.
On to `CCC(CC)(c1ccc(OC[C@@H](O)CO)c(C)c1)c1ccc(OC[C@@H](O)C(C)(C)OCCCCCCCCO)c(C)c1`, for which the inhibition entry in assay [2] was “inactive”. For the same compound, the Activity in assay [3] came out at 18.8%; in assay [4], 40%. In addition, the EC50 in assay [1] (read-out: EC50) is more than 3 µM.
Consider `CCCCCCOC(C)(C)[C@H](O)COc1ccc(C(CC)(CC)c2ccc(OC[C@@H](O)CO)c(C)c2)cc1C`, for which, in assay [2], the inhibition entry is “inactive”. The Activity in assay [4] worked out at 19%; in assay [5], 22%. For the same compound, the EC50 in assay [1] (read-out: EC50) is more than 10 µM.
On to `CCC(CC)(c1ccc(OC[C@@H](O)CO)c(C)c1)c1ccc(OC[C@H](O)C(C)(C)OCCCCCCCCO)c(C)c1`, for which the inhibition entry in assay [2] is “inactive”. The values for the Activity in assay [3], in assay [4] and in assay [5] were 37.6%, 77% and 100%, respectively. The EC50 in assay [1] (read-out: EC50) was 1.2 µM.
As to `CCCCCCCCOC(C)(C)[C@@H](O)COc1ccc(C(CC)(CC)c2ccc(OC[C@@H](O)CO)c(C)c2)cc1C`, in assay [1] (hek293), the concentration for a half-maximal effect (EC50) result is “Not Active”.
`CCCCCCCCCCOC(C)(C)[C@H](O)COc1ccc(C(CC)(CC)c2ccc(OC[C@@H](O)CO)c(C)c2)cc1C`: the 50% effective concentration (EC50) result in assay [1] (hek293) is recorded as “Not Active”.
Same read-out and setting: to `CCCCCCCCCCOC(C)(C)[C@@H](O)COc1ccc(C(CC)(CC)c2ccc(OC[C@@H](O)CO)c(C)c2)cc1C` belongs “Not Active”.
`CCCCCCOC(C)(C)[C@@H](O)COc1ccc(C(CC)(CC)c2ccc(OC[C@@H](O)CO)c(C)c2)cc1C`: in assay [2], the inhibition result was “inactive”. The Activity was 25.1% in assay [3], 37% in assay [4] and 47% in assay [5]. Further, in assay [1] (read-out: EC50), the EC50 came to 1.5 µM.
